3 compounds from ChEMBL document CHEMBL1201862, “PubChem BioAssay data set” (2004) can be followed below.

Active and inactive are the calls of the source.

Holding throughout (format): functional
The target in assay [1] is Leucine-rich repeat serine/threonine-protein kinase 2 (Homo sapiens, UniProt Q5S007).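 Further: value from a broad kinome-wide panel profiling study in which LRRK2 was one of the kinases tested.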
In assay [2] the target is Rho-associated protein kinase 1 (Homo sapiens, UniProt Q13464).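 Further: measured within a broad kinome-wide panel profiling many kinases.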
Assay [3] concerns the target Dual specificity mitogen-activated protein kinase kinase 1 (Homo sapiens, UniProt Q02750). In words: Navigating the Kinome. Panel member name: MAP2K1.
For assay [4], the target named is Mitogen-activated protein kinase 8 (Homo sapiens, UniProt P45983).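 Further: value comes from one member of a kinome-wide kinase profiling panel.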
Assay [5] deals with T1, Receptor-type tyrosine-protein kinase FLT3 (Homo sapiens, UniProt P36888).
T1 sequence (P36888 whole entry): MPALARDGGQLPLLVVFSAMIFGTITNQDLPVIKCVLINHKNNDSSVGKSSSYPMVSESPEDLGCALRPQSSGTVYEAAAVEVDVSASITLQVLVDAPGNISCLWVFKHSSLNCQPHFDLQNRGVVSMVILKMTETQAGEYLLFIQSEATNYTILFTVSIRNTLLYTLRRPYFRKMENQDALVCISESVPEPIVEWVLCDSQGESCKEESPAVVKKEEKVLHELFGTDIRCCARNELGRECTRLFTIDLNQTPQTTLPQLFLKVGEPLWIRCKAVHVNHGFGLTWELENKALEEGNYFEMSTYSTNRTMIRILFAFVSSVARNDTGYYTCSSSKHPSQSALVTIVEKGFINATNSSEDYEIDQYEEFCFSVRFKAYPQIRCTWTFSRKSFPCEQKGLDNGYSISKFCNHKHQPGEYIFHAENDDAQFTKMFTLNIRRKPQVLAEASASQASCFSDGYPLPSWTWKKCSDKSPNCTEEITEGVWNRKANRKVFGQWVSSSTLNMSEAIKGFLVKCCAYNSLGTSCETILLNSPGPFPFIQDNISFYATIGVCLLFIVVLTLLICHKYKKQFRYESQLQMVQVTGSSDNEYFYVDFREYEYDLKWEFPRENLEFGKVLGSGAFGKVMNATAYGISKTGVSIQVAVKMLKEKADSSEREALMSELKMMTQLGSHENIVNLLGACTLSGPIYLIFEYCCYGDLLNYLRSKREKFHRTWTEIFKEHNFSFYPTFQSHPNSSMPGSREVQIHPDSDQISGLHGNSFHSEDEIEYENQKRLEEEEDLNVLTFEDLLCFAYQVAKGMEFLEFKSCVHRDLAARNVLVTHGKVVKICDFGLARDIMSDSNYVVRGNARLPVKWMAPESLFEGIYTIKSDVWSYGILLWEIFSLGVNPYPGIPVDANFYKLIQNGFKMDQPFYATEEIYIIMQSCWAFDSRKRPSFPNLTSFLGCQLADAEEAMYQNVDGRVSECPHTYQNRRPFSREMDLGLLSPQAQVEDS

In assay [6] the target is T2, Inhibitor of nuclear factor kappa-B kinase subunit epsilon (Homo sapiens, UniProt Q14164).
T2 sequence (Q14164 whole entry): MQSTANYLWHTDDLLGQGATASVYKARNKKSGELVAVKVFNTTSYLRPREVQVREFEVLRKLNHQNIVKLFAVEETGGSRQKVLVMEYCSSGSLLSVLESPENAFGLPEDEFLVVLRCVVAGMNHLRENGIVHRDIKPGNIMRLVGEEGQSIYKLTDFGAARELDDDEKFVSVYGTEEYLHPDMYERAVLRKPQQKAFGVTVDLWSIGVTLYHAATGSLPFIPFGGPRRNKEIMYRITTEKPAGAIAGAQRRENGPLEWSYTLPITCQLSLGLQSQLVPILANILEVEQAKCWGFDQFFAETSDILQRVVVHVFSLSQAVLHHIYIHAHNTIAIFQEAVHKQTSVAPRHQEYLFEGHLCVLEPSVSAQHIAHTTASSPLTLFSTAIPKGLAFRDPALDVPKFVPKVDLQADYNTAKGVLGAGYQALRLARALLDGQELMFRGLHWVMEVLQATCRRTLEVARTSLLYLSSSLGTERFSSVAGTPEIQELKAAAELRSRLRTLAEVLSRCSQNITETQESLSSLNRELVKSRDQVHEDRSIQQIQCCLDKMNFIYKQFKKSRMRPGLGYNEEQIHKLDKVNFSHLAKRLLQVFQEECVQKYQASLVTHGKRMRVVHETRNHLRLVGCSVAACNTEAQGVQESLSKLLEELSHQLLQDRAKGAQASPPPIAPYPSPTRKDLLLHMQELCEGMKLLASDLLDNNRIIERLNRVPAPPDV
Description: Navigating the Kinome. Panel member name: IKBKE.

Assay [7] deals with Vascular endothelial growth factor receptor 1 (Homo sapiens, UniProt P17948).
For assay [8], the target named is cAMP-dependent protein kinase catalytic subunit alpha (Homo sapiens, UniProt P17612).
The target in assay [9] is Glycogen synthase kinase-3 beta (Homo sapiens, UniProt P49841).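 Further: value comes from a broad kinome profiling panel, with GSK3B as the panel member.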
Chain of Glycogen synthase kinase-3 beta (P49841 whole entry): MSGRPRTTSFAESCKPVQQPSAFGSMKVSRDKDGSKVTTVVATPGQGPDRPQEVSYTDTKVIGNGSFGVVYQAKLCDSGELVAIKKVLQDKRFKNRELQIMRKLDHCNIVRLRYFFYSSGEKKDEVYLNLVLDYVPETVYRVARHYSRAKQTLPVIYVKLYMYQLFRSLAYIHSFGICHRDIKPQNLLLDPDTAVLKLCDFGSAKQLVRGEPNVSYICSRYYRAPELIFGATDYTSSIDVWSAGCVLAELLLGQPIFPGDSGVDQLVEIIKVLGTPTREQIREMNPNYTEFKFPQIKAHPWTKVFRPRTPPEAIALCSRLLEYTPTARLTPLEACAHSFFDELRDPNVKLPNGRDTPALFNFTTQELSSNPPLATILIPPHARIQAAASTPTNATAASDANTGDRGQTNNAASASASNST
Assay [10] concerns the target Glycogen synthase kinase-3 alpha (Homo sapiens, UniProt P49840).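 Further: GSK3A result taken from a broad kinome-wide kinase panel.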
For assay [11], the target named is ALK tyrosine kinase receptor (Homo sapiens, UniProt Q9UM73).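 Further: ALK tested as one member of a kinase panel screen.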
The target in assay [12] is Dual specificity tyrosine-phosphorylation-regulated kinase 1B (Homo sapiens, UniProt Q9Y463). In words: Navigating the Kinome. Panel member name: DYRK1B.
Chain of Dual specificity tyrosine-phosphorylation-regulated kinase 1B (Q9Y463 whole entry): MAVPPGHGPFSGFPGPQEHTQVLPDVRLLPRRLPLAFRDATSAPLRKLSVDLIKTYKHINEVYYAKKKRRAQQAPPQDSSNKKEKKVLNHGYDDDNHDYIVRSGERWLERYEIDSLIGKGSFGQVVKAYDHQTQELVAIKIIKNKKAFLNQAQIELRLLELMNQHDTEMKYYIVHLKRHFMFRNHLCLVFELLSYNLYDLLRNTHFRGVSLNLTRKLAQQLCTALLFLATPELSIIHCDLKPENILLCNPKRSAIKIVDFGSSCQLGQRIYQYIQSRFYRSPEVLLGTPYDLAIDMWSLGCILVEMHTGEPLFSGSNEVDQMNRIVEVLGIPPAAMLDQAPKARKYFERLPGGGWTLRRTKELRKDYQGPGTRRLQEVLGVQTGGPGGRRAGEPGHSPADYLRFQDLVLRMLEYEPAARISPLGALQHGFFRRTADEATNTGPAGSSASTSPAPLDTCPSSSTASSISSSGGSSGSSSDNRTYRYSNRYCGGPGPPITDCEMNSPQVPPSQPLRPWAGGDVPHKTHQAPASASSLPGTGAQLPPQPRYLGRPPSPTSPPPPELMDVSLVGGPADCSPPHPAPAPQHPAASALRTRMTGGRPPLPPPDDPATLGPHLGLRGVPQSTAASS
Assay [13] deals with Tyrosine-protein kinase Lck (Homo sapiens, UniProt P06239).
For assay [14], the target named is Cyclin-dependent kinase 9 (Homo sapiens, UniProt P50750).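 Further: value from the CDK9 entry of a kinome-spanning kinase panel.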
In assay [15] the target is T3, cAMP-dependent protein kinase catalytic subunit PRKX (Homo sapiens, UniProt P51817).
T3 sequence (P51817 whole entry): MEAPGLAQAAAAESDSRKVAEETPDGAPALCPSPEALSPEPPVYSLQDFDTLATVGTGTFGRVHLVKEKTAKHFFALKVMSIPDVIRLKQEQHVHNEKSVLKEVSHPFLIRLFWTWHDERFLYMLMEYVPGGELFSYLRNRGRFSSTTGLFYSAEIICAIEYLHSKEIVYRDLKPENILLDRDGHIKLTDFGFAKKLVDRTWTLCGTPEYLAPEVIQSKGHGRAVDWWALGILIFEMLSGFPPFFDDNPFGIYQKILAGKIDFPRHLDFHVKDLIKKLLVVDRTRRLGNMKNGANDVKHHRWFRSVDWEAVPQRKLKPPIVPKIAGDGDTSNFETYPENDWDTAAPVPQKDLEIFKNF

Assay [16] addresses G protein-coupled receptor kinase 5 (Homo sapiens, UniProt P34947). Description: Navigating the Kinome. Panel member name: GPRK5.
Assay [17] concerns the target Leukocyte tyrosine kinase receptor (Homo sapiens, UniProt P29376). Description: Navigating the Kinome. Panel member name: LTK.
The target of assay [18] is Casein kinase I isoform alpha (Homo sapiens, UniProt P48729).

Chain of Glycogen synthase kinase-3 alpha (P49840 whole entry): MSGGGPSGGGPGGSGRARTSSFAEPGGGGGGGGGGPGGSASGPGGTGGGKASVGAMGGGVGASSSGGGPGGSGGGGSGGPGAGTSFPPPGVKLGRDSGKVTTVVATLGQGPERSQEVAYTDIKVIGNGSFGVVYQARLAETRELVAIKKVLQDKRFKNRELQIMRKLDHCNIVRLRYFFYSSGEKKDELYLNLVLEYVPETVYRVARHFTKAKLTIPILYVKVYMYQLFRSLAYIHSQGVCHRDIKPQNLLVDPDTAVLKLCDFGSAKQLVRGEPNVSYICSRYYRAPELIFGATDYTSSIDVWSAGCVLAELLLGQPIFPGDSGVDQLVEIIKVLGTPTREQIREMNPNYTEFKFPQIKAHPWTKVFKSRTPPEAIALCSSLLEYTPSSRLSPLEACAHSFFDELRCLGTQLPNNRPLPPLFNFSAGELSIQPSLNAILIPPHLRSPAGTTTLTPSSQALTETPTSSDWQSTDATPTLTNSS
Chain of Dual specificity mitogen-activated protein kinase kinase 1 (Q02750 whole entry): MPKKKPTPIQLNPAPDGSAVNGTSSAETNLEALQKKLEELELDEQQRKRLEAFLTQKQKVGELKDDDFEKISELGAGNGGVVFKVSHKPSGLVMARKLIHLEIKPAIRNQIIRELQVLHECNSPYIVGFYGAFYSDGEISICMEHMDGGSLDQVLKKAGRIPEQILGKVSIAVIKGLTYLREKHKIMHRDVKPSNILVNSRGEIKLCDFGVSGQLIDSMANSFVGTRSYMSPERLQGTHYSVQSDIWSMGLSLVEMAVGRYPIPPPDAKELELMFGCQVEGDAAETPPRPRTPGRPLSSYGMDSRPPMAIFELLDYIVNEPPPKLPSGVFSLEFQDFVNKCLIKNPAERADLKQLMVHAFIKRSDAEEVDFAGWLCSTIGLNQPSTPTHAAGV
Chain of Leucine-rich repeat serine/threonine-protein kinase 2 (Q5S007 whole entry): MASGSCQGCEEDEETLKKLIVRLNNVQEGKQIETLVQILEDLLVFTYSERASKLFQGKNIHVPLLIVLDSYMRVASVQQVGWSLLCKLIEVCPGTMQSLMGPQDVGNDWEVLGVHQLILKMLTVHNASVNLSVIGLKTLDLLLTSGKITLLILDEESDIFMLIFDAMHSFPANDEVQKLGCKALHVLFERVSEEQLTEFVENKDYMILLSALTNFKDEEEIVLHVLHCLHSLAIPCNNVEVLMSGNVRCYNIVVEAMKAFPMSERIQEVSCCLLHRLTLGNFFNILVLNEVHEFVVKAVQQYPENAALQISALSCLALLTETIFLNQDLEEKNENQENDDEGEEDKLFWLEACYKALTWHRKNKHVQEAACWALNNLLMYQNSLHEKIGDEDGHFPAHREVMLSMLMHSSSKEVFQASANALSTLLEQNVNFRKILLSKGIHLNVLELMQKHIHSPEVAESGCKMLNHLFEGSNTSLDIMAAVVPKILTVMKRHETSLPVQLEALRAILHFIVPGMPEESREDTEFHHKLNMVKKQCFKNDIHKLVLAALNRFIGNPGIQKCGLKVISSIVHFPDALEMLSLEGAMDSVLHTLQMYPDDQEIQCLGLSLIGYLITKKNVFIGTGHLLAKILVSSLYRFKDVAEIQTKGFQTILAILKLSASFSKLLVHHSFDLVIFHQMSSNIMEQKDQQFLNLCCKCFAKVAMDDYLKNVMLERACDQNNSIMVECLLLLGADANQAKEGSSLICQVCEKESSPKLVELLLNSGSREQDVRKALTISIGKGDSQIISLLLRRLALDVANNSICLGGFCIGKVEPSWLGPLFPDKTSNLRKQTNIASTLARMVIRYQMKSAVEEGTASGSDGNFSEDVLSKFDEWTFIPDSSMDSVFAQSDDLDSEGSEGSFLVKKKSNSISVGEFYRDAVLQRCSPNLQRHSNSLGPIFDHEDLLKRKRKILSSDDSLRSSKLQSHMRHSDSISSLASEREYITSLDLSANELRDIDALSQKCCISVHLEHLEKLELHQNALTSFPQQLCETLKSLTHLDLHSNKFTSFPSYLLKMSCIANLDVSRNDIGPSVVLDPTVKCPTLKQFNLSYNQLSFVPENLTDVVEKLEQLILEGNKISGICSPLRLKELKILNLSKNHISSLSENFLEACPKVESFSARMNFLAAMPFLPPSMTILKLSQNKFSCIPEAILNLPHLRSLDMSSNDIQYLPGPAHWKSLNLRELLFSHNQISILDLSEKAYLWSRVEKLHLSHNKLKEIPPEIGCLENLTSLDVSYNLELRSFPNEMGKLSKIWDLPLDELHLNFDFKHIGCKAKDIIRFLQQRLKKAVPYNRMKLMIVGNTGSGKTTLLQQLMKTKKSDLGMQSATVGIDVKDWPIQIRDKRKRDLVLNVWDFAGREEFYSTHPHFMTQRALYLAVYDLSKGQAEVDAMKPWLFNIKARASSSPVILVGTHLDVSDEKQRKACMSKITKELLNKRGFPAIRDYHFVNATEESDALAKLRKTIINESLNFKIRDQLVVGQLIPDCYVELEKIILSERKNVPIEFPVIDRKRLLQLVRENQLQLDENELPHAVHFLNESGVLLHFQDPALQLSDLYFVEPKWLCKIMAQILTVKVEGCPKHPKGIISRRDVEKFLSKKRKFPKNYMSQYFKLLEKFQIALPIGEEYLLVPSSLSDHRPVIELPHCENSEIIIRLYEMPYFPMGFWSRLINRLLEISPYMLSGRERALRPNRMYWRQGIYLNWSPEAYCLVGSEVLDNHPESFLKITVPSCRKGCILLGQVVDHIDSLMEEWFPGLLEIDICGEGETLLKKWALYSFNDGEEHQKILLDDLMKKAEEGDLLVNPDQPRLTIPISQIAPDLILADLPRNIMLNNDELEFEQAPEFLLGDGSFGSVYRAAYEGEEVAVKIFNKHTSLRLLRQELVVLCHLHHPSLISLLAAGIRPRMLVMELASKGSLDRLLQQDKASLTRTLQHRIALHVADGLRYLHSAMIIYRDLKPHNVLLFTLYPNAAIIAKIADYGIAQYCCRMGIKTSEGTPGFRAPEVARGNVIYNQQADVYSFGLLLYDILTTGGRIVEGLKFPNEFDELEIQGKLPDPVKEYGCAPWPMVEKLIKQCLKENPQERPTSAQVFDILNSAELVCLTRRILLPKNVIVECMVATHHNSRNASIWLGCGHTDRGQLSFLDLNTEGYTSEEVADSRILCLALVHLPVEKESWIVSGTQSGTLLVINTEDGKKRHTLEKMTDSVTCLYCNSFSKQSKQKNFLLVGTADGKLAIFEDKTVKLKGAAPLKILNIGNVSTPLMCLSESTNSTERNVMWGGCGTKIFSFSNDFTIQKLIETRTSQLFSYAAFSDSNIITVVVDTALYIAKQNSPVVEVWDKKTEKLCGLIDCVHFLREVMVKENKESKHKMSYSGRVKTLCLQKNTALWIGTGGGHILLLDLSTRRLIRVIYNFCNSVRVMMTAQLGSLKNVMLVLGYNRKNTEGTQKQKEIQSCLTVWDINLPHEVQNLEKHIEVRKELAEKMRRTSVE
Chain of G protein-coupled receptor kinase 5 (P34947 whole entry): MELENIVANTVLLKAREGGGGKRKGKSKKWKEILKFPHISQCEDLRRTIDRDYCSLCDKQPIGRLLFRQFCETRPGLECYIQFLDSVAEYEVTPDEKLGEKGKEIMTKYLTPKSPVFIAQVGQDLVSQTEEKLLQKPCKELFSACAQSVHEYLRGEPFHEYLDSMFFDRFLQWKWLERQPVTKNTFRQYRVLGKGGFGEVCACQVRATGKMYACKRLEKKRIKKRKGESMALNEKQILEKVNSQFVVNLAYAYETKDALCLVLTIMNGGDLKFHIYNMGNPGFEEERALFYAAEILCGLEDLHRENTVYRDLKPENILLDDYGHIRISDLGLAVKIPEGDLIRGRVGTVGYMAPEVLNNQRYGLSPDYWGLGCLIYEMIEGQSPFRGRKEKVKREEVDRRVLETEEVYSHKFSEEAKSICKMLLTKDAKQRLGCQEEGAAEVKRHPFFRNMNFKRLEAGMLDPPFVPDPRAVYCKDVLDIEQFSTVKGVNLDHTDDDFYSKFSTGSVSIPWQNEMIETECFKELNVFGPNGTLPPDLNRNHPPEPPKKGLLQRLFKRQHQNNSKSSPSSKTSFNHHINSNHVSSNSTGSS

The Ki is the equilibrium dissociation constant of an inhibitor or competing ligand from its target. For `COc1cccc(C(C)NC(=O)c2sc(-c3ccncc3)nc2C)c1` (configuration not stated), the Ki in [1] was > 2.51 µM (inactive); in [2], 0.0316 µM (active); in [3] it was > 3.16 µM (inactive); in assay [4] it was > 5.01 µM (inactive); in [5], > 3.16 µM (inactive); in [6], > 3.16 µM (inactive). Moreover, the Ki in assay [7] was > 3.98 µM (inactive); in [8], > 1.26 µM (inactive); in assay [9], > 3.98 µM (inactive); in assay [10], > 3.98 µM (inactive); in [11], > 6.31 µM (inactive); in assay [12], > 2.51 µM (inactive). Further, the Ki is > 6.31 µM (inactive) in [13]; > 1.58 µM (inactive) in [14]; > 3.16 µM (inactive) in assay [15]; > 3.98 µM (inactive) in [16]; > 2.51 µM (inactive) in [17].

In the case of `Oc1ccc(-c2nc(-c3ccncc3)c(-c3ccc(F)cc3)[nH]2)cc1` [SB-202190], the Ki in assay [1] is > 2.51 µM (inactive); in [2], > 3.98 µM (inactive); in [3] it was > 3.16 µM (inactive); in [4], 0.501 µM (active); in [5], > 2.51 µM (inactive); in [6], > 3.16 µM (inactive). Also, the Ki was > 3.98 µM (inactive) in [7]; 1 µM (active) in assay [8]; > 2.51 µM (inactive) in assay [9]; > 3.98 µM (inactive) in assay [10]; > 6.31 µM (inactive) in [11]; > 2.51 µM (inactive) in assay [12]. For the same compound, the Ki in assay [13] is > 5.01 µM (inactive); in [14], > 1.58 µM (inactive); in assay [18], 1 µM (active); in assay [15], > 3.16 µM (inactive); in assay [16] it was > 3.98 µM (inactive); in assay [17], > 1.58 µM (inactive).

`CCCCC(=O)Nc1cc(-c2c[nH]c3ncccc23)cc(Cl)n1`: the Ki in [1] is > 2.51 µM (inactive); in [2], > 0.0316 µM (inactive); in assay [3], > 3.16 µM (inactive); in assay [4] it was > 5.01 µM (inactive); in assay [5], > 2.51 µM (inactive); in [6], > 3.16 µM (inactive). The Ki in assay [7] is > 3.98 µM (inactive); in [8], 0.316 µM (active); in assay [9], > 3.98 µM (inactive); in assay [10], > 3.98 µM (inactive); in assay [11] it was > 6.31 µM (inactive); in assay [12], 0.0398 µM (active). Also, the Ki was > 1.58 µM (inactive) in assay [14]; 0.794 µM (active) in [18]; > 3.16 µM (inactive) in assay [15]; > 3.98 µM (inactive) in assay [16]; > 2.51 µM (inactive) in assay [17].
